The source made the active and inactive calls. The rule behind the calls is not given here.
Tested on: HT-29
Test: Antiproliferative activity against human HT-29 cells after 1 to 15 hrs
Assay type: functional, cell-based

SMILES	Activity
CCC(C)C1OC(=O)[C@@H](NC(=O)c2cccc(N)c2O)[C@H](C)OC(=O)C(C)(C)C(=O)C(CC(C)C)OC1=O (some centres not stated)	Active
CCC(C)C1OC(=O)[C@@H](NC(=O)c2cccc(O)c2O)[C@H](C)OC(=O)C(C)(C)C(=O)C(CC(C)C)OC1=O (some centres not stated)	Active
